Laboratory results taken from ChEMBL document CHEMBL1201862, “PubChem BioAssay data set” (2004).
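Each compound was tested at five concentrations against cells in 96-well plates for 48 hours. GI50 = concentration required for 50% inhibition of growth.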 Active and inactive are the calls of the source. Cut-off read from the data, not from the text of the source: active = GI50 up to about 1.1 µM and inactive = higher.

How the values were obtained:
Assay in all cases: growth of human tumour cells (NCI), 48 h
HL-60 = test system: HL-60
DU-145 = test system: DU-145
TK-10 = test system: TK-10
SR = test system: SR
MDA-MB-435 = test system: MDA-MB-435
NCI-H460 = test system: NCI-H460
PC-3 = test system: PC-3
SK-MEL-5 = test system: SK-MEL-5
SNB-19 = test system: SNB-19
SK-MEL-2 = test system: SK-MEL-2
BT-549 = test system: BT-549
NCI-H522 = test system: NCI-H522
T47D = test system: T47D
A549 = test system: A549
LOX IMVI = test system: LOX IMVI
CAKI-1 = test system: CAKI-1
A498 = test system: A498
SK-OV-3 = test system: SK-OV-3
RPMI-8226 = test system: RPMI-8226
HCT-15 = test system: HCT-15

Structure (SMILES)	GI50 (HL-60)	GI50 (DU-145)	GI50 (TK-10)	GI50 (SR)	GI50 (MDA-MB-435)	GI50 (NCI-H460)	GI50 (PC-3)	GI50 (SK-MEL-5)	GI50 (SNB-19)	GI50 (SK-MEL-2)	GI50 (BT-549)	GI50 (NCI-H522)	GI50 (T47D)	GI50 (A549)	GI50 (LOX IMVI)	GI50 (CAKI-1)	GI50 (A498)	GI50 (SK-OV-3)	GI50 (RPMI-8226)	GI50 (HCT-15) [µM]
CC(C)(C)OC(=O)NCCCCC1NC(=O)[C@@H]2Cc3c([nH]c4ccccc34)C(C3CCCCC3)N2C1=O (stereo not given in full)	31.1 µM (inactive)	54.8 µM (inactive)	21.8 µM (inactive)	15.2 µM (inactive)	23.6 µM (inactive)	29.2 µM (inactive)	18.3 µM (inactive)	33.6 µM (inactive)	57.7 µM (inactive)	26 µM (inactive)	47.6 µM (inactive)	45.3 µM (inactive)	12.9 µM (inactive)	30.5 µM (inactive)	31.2 µM (inactive)	56.6 µM (inactive)	> 100 µM (inactive)	53.7 µM (inactive)	12.2 µM (inactive)	36
COc1ccc2nc3ccc(OC)cc3c(SCCO)c2c1	4.17 µM (inactive)	5.65 µM (inactive)	51.3 µM (inactive)	19 µM (inactive)	21.5 µM (inactive)	68.9 µM (inactive)	27.4 µM (inactive)	32.1 µM (inactive)	> 59.7 µM (inactive)	30 µM (inactive)	31.3 µM (inactive)	4.56 µM (inactive)	15.8 µM (inactive)	> 78.7 µM (inactive)	8.43 µM (inactive)	13.4 µM (inactive)	> 58.1 µM (inactive)	54.5 µM (inactive)	12.3 µM (inactive)	27.4
CN(CCn1cnc2c1c(=O)n(C)c(=O)n2C)C1CCCCC1	> 100 µM (inactive)	> 100 µM (inactive)	> 100 µM (inactive)	> 100 µM (inactive)	> 100 µM (inactive)	> 100 µM (inactive)	> 100 µM (inactive)	> 100 µM (inactive)	> 100 µM (inactive)	> 100 µM (inactive)	> 100 µM (inactive)	> 100 µM (inactive)	> 100 µM (inactive)	> 100 µM (inactive)	> 100 µM (inactive)	> 100 µM (inactive)	> 100 µM (inactive)	> 100 µM (inactive)	> 100 µM (inactive)	> 100
CC[N+]1(C)CCC(O)(/C=C/c2ccc(Cl)c(Cl)c2)C(C(=O)/C=C/c2ccc(Cl)c(Cl)c2)C1 (stereo not given)	1.9 µM (inactive)	2.71 µM (inactive)	2.43 µM (inactive)	0.406 µM (active)	2.12 µM (inactive)	2.99 µM (inactive)	2.18 µM (inactive)	2.68 µM (inactive)	6.11 µM (inactive)	3.86 µM (inactive)	2.96 µM (inactive)	1.77 µM (inactive)	1.8 µM (inactive)	4.41 µM (inactive)	1.39 µM (inactive)	4.07 µM (inactive)	2.52 µM (inactive)	3.41 µM (inactive)	2.17 µM (inactive)	2.17
N=C1OC(CN2CCN(c3ccccc3)CC2)CN1C(=O)Nc1ccccc1 (stereo not given)	53.5 µM (inactive)	> 100 µM (inactive)	> 100 µM (inactive)	57.7 µM (inactive)	> 100 µM (inactive)	> 100 µM (inactive)	> 100 µM (inactive)	> 100 µM (inactive)	> 100 µM (inactive)	> 100 µM (inactive)	> 100 µM (inactive)	39.7 µM (inactive)	> 100 µM (inactive)	> 100 µM (inactive)	> 100 µM (inactive)	> 100 µM (inactive)	> 100 µM (inactive)	> 100 µM (inactive)	> 100 µM (inactive)	> 100
CCC1(CC)C(=O)CC[C@@]2(C)C1=CC[C@H]1[C@@H]3CC[C@H](O)[C@@]3(C)CC[C@@H]12	18.6 µM (inactive)	33.8 µM (inactive)	19.9 µM (inactive)	15.4 µM (inactive)	61 µM (inactive)	16.3 µM (inactive)	30.3 µM (inactive)	47.3 µM (inactive)	24 µM (inactive)	79.3 µM (inactive)	> 100 µM (inactive)	19.8 µM (inactive)	28.9 µM (inactive)	13.5 µM (inactive)	19.4 µM (inactive)	83.8 µM (inactive)	23.8 µM (inactive)	46.1 µM (inactive)	12.1 µM (inactive)	46.9
CCOC(=O)c1cc(Br)c(-c2onc(C)c2Br)n1C	11.8 µM (inactive)	93.5 µM (inactive)	66.8 µM (inactive)	20.5 µM (inactive)	34.8 µM (inactive)	40 µM (inactive)	35.3 µM (inactive)	16.9 µM (inactive)	46.2 µM (inactive)	36.6 µM (inactive)	41.4 µM (inactive)	19.1 µM (inactive)	15.6 µM (inactive)	23.3 µM (inactive)	34 µM (inactive)	12.8 µM (inactive)	45.2 µM (inactive)	21.9 µM (inactive)	55 µM (inactive)	37.6
